Test results as given in ChEMBL document CHEMBL4732117, “Small Molecule Approaches for Targeting the Polycomb Repressive Complex 2 (PRC2) in Cancer” (J Med Chem, 2020).
Each block holds one compound with its values, some of them ahead of it. Where a SMILES comes first, the peptide text is derived from it. [ ]: non-standard residue; d: D form. Lys(Me3) = C[N+](C)(C)CCCC[C@H](N)C(=O)O

Assays:
Polycomb protein EED [1] = molecular target: T1, Polycomb protein EED (Homo sapiens, UniProt O75530); test: Displacement of OG(488) labeled probe from GST-tagged EED (unknown origin) incubated for 1 hr by lanthaScreen TR-FRET method
T1 sequence (O75530 whole entry): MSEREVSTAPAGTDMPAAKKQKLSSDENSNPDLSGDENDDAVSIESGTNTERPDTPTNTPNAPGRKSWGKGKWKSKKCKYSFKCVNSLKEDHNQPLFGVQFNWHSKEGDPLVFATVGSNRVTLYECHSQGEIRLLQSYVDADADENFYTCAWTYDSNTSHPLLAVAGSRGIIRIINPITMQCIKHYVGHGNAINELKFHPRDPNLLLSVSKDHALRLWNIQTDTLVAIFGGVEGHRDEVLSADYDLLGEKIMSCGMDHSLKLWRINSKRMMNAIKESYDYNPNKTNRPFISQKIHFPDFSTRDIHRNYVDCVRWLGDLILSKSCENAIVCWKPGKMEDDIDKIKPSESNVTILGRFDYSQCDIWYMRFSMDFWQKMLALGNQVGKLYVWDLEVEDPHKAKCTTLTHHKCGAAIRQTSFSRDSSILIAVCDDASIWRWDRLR

[2] = Time at which plasma concentration stays above cellular IC50 for inhibition of EZH2 in Swiss albino mouse at 50 to 150 mg/kg, ip; format: organism-based; conditions: in vivo, dose 50-150 mg/kg
[3] = Cmax in Swiss albino mouse at 150 mg/kg, ip measured after 0.08 to 24 hrs; format: ADME, organism-based; set-up: route intraperitoneal, time 0.08-24 hrs, dose 150 mg/kg; conditions: in vivo
[4] = Time at which plasma concentration stays above cellular IC50 for inhibition of EZH2 in Swiss albino mouse at 15 mg/kg, ip; format: organism-based; conditions: in vivo
[5] = Time at which plasma concentration stays above cellular IC50 for inhibition of EZH2 in Swiss albino mouse at 50 mg/kg, PO; format: organism-based; conditions: in vivo
[6] = molecular target: T2, Histone-lysine N-methyltransferase EZH2 (Homo sapiens, UniProt Q15910); test: Inhibition of EZH2 in PRC2 complex (unknown origin) using biotinylated peptide as substrate in presence of S-adenosylmethionine
T2 sequence (Q15910 whole entry): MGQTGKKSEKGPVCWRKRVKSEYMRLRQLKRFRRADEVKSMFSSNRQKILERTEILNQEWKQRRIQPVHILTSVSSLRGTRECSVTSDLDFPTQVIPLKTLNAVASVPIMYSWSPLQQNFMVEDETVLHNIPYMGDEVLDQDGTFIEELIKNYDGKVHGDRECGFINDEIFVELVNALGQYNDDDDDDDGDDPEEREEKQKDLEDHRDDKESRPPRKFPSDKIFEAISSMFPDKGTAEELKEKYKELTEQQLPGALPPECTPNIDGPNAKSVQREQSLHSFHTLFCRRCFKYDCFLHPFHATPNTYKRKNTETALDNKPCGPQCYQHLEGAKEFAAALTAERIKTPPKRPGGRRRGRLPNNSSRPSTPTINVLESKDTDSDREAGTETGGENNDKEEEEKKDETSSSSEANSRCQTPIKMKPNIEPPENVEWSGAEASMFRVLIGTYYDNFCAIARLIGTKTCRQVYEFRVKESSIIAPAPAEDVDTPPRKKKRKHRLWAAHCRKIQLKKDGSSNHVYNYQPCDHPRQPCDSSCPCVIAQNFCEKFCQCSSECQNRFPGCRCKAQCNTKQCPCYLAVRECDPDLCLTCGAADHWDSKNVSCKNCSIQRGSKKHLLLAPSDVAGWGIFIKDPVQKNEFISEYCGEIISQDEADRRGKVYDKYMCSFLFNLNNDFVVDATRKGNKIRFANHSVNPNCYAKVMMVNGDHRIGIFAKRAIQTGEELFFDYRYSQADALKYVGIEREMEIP

[7] = molecular target: von Hippel-Lindau disease tumor suppressor/Polycomb protein EED (Homo sapiens) (UniProt O75530+P40337); test: Induction of VHL-mediated EED degradation in human HeLa cells at 5 uM incubated for 24 hrs by Western blot analysis relative to control; format: cell-based
Sequence of von Hippel-Lindau disease tumor suppressor/Polycomb protein EED (Homo sapiens) (O75530 2-441 limits assumed): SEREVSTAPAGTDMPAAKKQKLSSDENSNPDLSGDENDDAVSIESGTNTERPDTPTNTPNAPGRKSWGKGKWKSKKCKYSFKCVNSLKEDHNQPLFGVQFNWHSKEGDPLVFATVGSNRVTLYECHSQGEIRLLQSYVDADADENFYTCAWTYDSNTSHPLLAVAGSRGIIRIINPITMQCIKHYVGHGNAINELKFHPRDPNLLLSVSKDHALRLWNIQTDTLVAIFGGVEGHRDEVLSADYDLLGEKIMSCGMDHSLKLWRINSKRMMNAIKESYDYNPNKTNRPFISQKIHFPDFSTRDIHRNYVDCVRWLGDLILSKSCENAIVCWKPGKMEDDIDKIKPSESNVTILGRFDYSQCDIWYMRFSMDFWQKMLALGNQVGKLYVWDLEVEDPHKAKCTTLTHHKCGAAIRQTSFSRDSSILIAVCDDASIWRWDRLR
Sequence of von Hippel-Lindau disease tumor suppressor/Polycomb protein EED (Homo sapiens) (P40337 whole entry partner): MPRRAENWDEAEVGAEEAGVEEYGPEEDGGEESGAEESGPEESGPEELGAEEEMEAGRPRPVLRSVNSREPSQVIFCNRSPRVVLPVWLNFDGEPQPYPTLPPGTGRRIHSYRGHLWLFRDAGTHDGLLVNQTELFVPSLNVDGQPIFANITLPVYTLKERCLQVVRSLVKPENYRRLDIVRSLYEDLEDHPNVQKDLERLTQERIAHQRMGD

[8] = Plasma concentration in Swiss albino mouse at 50 mg/kg, ip measured up to 24 hrs by LC-MS/MS analysis; format: ADME, organism-based
Polycomb protein EED [9] = molecular target: T1, Polycomb protein EED; test: Displacement of 3-FAM from N-terminal 6His-tagged full length EED (unknown origin) expressed in Escherichia coli Rosetta2 BL21(DE3)pLysS incubated for 30 mins by fluorescence polarization assay
[10] = Plasma concentration in SCID mouse xenografted with human G-401 cells at 125 mg/kg, po BID administered for 21 days and measured at 3 hrs post dose on day 21 by LC-MS/MS analysis; format: ADME, organism-based; conditions: time 21 day
[11] = molecular target: T3, Histone-lysine N-methyltransferase EZH1 (Homo sapiens, UniProt Q92800); test: Inhibition of EZH1 in PRC2 complex (unknown origin) using biotinylated peptide as substrate in presence of S-adenosylmethionine
T3 sequence (Q92800 whole entry): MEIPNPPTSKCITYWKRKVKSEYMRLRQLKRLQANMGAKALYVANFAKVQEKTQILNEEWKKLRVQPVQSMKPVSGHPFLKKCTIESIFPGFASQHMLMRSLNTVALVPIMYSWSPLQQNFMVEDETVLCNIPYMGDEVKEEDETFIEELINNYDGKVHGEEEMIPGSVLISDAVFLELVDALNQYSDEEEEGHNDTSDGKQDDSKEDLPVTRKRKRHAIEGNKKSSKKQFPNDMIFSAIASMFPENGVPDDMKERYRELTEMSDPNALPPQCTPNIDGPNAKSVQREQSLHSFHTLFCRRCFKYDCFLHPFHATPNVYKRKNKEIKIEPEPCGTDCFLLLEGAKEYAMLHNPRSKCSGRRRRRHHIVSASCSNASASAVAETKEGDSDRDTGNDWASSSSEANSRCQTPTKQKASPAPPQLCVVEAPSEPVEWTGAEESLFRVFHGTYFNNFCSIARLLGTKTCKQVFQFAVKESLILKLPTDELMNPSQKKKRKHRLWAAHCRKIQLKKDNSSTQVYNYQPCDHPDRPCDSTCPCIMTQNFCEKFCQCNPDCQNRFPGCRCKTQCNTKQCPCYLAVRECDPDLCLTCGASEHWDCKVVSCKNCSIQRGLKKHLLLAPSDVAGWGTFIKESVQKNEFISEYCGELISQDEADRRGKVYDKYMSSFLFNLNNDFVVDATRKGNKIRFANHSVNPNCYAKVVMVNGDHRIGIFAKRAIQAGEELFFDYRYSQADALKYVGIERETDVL

CT26 = test: Antitumor activity against mouse CT26 cells implanted in NOD/SCID mouse assessed as tumor growth inhibition at 30 mg/kg, PO relative to control; format: functional; conditions: read-out: TGI
Polycomb protein EED [12] = molecular target: T1, Polycomb protein EED; test: Binding affinity to human N-terminal His6-tagged/thrombin cleavage site fused/ AVI-tagged EED (1 to 441 residues) expressed in Escherichia coli BL21(DE3) cells by surface plasmon resonance method
KARPAS-422 = test: Antiproliferative activity against human Karpas422 cells after 14 days by celltiter-glo luminescent cell viability assay; format: functional; conditions: KARPAS-422, 336 h, time 14 day
[13] = Drug concentration in nucleus of human G401 cells assessed per million cells at 10 uM incubated for 2 hrs by UPLC-MS analysis; format: ADME, subcellular; conditions: g-401, 2 h
[14] = Drug concentration in cytoplasm of human G401 cells assessed per million cells at 10 uM incubated for 2 hrs by UPLC-MS analysis; format: ADME, subcellular; conditions: g-401, 2 h
Polycomb protein EED [15] = molecular target: T1, Polycomb protein EED; test: Displacement of UNC5114-biotin tracer ligand from N-terminal 6His-tagged EED (1 to 441 residues) (unknown origin) expressed in Escherichia coli Rosetta2 BL21(DE3)pLysS cells measured after 1 hr by TR-FRET analysis
[16] = Plasma concentration in mouse xenografted with human Karpas-422 cells at 40 mg/kg, po; format: ADME, organism-based; conditions: in vivo
Polycomb protein EED [17] = molecular target: T1, Polycomb protein EED; test: Binding affinity to EED in PRC2 complex (unknown origin) using H3K27me0 (21 to 44 residue) peptide as substrate by LC-MS analysis
[18] = molecular target: T2, Histone-lysine N-methyltransferase EZH2; test: Inhibition of wild type EZH2 in human PRC2 complex using S-adenosylmethionine and biotinylated histone peptides as substrate
Polycomb protein EED [19] = molecular target: T1, Polycomb protein EED; test: Binding affinity to EED (unknown origin) by TR-FRET based binding assay
[20] = molecular target: T2, Histone-lysine N-methyltransferase EZH2; test: Inhibition of EZH2 in PRC2 complex (unknown origin) expressed in Sf9 cells using histone H3 (21 to 44)-lys (biotin) and SAM as substrate incubated for 90 mins by radiometric scintillation proximity assay

Structure (SMILES): CN(C)[C@H]1CN(Cc2ccccc2)C[C@@H]1c1ccc(N2CCN(S(C)(=O)=O)CC2)cc1
Ki (Polycomb protein EED [1]): 1830 nM

Structure (SMILES): Cc1cc(C)c(CNC(=O)c2cc(-c3ccc(N4CCN(CCNC(=O)CC56CC7CC(CC(C7)C5)C6)CC4)nc3)cc3c2cnn3C(C)C)c(=O)[nH]1
concentration at 24 h [8]: > 1 µM

Structure (SMILES): Cc1cc(C)c(CNC(=O)c2cc(-c3ccc(CN4CCOCC4)cc3)cc3c2cnn3C2CCCC2)c(=O)[nH]1
concentration at 504 h [10]: 8 µM | IC50 [11]: 45 nM

Structure (SMILES): Cc1ncccc1-c1cnc(NCc2c(F)ccc3c2CCO3)n2cnnc12
inhibition in vivo at 30 mg/kg (CT26): 59%

Structure (SMILES): Cc1nc(CCC(=O)NCCCCC(=O)N[C@H](C(=O)N2C[C@H](O)C[C@H]2C(=O)NCc2ccc(-c3scnc3C)cc2)C(C)(C)C)ccc1-c1cnc(NCc2c(F)ccc3c2CCO3)n2cnnc12
Kd (Polycomb protein EED [12]): < 1 nM | GI50 (KARPAS-422): 57 nM | Drug uptake [13]: 0.79 pmol | Drug uptake [14]: 0.03 pmol

Structure (SMILES): CS(=O)(=O)c1ccc(-c2cnc(NCc3ccco3)n3cnnc23)cc1
IC50 (Polycomb protein EED [15]): 45 nM | concentration [16]: > 30 µM | IC50 (Polycomb protein EED [17]): 23.4 nM

Structure (SMILES): CN(C)[C@H]1CN(C2CCc3cccc(F)c32)C[C@@H]1c1cn(C)c2ccccc12 (stereo not given in full)
Ki (Polycomb protein EED [19]): 11 nM

Structure (SMILES): CNC(=O)CCc1ccc(-c2cnc(NCc3c(F)ccc4c3CCO4)n3cnnc23)c(C)n1
GI50 (KARPAS-422): 14 nM | Drug uptake [13]: 0.19 pmol | Drug uptake [14]: 0.34 pmol

Structure (SMILES): Cc1nc(CCC(=O)NCCOc2ccc(OCC(=O)N[C@H](C(=O)N3C[C@H](O)C[C@H]3C(=O)NCc3ccc(-c4scnc4C)cc3)C(C)(C)C)cc2)ccc1-c1cnc(NCc2c(F)ccc3c2CCO3)n2cnnc12
Kd (Polycomb protein EED [12]): < 1 nM | GI50 (KARPAS-422): 45 nM | Drug uptake [13]: 37.2 pmol | Drug uptake [14]: 4.69 pmol

Structure (SMILES): CCCc1cc(C)[nH]c(=O)c1CNC(=O)c1cc(-c2ccc(N3CCN(C)CC3)nc2)nc2c1cnn2C(C)C
IC50 [20]: 11 nM

Next, values leading:

Time [2]: 24 h | Cmax [3]: 12 µM | Time [4]: 12 h | Time [5]: 20 h | IC50 [6]: 2 nM
Structure (SMILES): CCCc1cc(C)[nH]c(=O)c1CNC(=O)c1cc(-c2ccc(N3CCN(C(C)C)CC3)nc2)cc2c1cnn2C(C)C

Activity [7]: 80%
Structure (SMILES): Cc1ncsc1-c1ccc(CNC(=O)[C@@H]2C[C@@H](O)CN2C(=O)[C@@H](NC(=O)CCCNC(=O)c2ccc(-c3cnc(NCc4ccco4)n4cnnc34)cc2)C(C)(C)C)cc1

IC50 (Polycomb protein EED [9]): 14800 nM
Structure (SMILES): COC(=O)[C@H](C)NC(=O)[C@H](Cc1ccccc1)NC(=O)[C@H](CCCC[N+](C)(C)C)NC(=O)[C@H](CCCNC(=N)N)NC(=O)[C@@H](N)CCC(N)=O (H-QR[Lys(Me3)]FA-OMe)

Ki [18]: 310 nM
Structure (SMILES): Cc1cc(C)c(CNC(=O)c2cc(-c3ccc4c(c3)OCCO4)nc3c2cnn3C(C)C)c(=O)[nH]1

Ki [18]: 80 nM
Structure (SMILES): Cc1cc(C)c(CNC(=O)c2cc(-c3ccc(CN4CCOCC4)cc3)cc3c2cnn3C(C)C)c(=O)[nH]1
